Laboratory results from PMC10111420, “Optimization of Host Cell-Compatible, Antimicrobial Peptides Effective against Biofilms and Clinical Isolates of Drug-Resistant Bacteria” (ACS Infectious Diseases, 2023).
Where a SMILES comes first, the peptide text is derived from it. [ ]: non-standard residue; d: D form.

Assays:
human RBCs = format: cell-based
Outline: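 Washed human O+ erythrocytes (2 × 10^8 cells/mL stock, mixed 1:1) were incubated with peptide serially diluted from 100 μM in PBS for 1 h at 37 °C. Released hemoglobin was read at 410 nm in supernatant; fractional hemolysis calculated against 1% Triton (100%) and 0% lysis controls, averaged over ≥3 experiments.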

[1] = system: 14 clinical isolates of resistant bacterial strains; assay: Broth dilution, summary over the 14 clinical isolates of the first set; format: cell-based; conditions: 14 clinical isolates of the first set
Description: In Figure 4B, we plot the fraction of isolates sterilized as functions of antibiotic concentration.
(§1) Subcultures, prepared by inoculating 25 mL of fresh tryptic soy broth (TSB) with 200 μL of an overnight culture, were grown to log phase (OD600 = 0.3–0.6), after which cell counts were determined by measuring the OD600 (1.0 = 5 × 10^8 CFU/mL for E. coli, 4 × 10^8 CFU/mL for K. pneumoniae, 4 × 10^8 CFU/mL for P. aeruginosa, 1.5 × 10^8 CFU/mL for S. aureus). Bacterial cells were diluted to appropriate concentrations in TSB. We used the following clinical bacterial isolates of Klebsiella pneumoniae in this study: Strains KP6, KP46, NDM-1, KP396, and KP398 have been previously described.[43] ST58 strains C2, C3, and I2 are also described.[41] […] MRSA, […] S. aureus strain, is SAP400, a USA400 strain of community-acquired MRSA. […] The second independent set of K. pneumoniae isolates are previously described.[20],[21]
(§2) The antibiotics were serially diluted by a factor of 2:3 horizontally across 96-well plates from Corning, 25 μL per well. One column was reserved for controls. For the assays performed in the presence of RBC, type O+ human RBCs at 0 or 2.5 × 10^9 cells/mL were added in 50 μL aliquots to all wells. Following a 30-min incubation, 50 μL of TSB, inoculated with 5 × 10^5 CFU/mL, was added to all wells, and plates were incubated overnight at 37 °C. Following overnight incubation at 37 °C, the OD600 was measured (values of less than 0.1 were considered sterilized). To assess bacterial growth in the assays with RBC, the OD600 was measured after a second-day inoculation with 10 μL of solution from the original plate added to 100 μL of sterile TSB followed by overnight incubation.

[2] = system: K. pneumoniae clinical isolates
Description: as §1, §2
Experiments were repeated four to eight times independently, with pairs of replicate measurements on each 96-well plate. After overnight growth, optical densities were measured at 660 nm and the sterilized wells were identified by having O.D. < 0.08. Nonsterilized wells were nearly opaque with OD > 0.6. For each measurement, we recorded the largest dilution that sterilized the bacteria. Statistics are done on dilution numbers, rather than calculated concentrations, because only the former have normal distributions.

MRSA wound biofilms = assay: SEM of Tegaderm wound dressing, MRSA; format: in vivo, CD1 mice; conditions: dressing removed on Day 3, treated three times a day
From the text: The Tegaderm dressing used in the murine wound model is an excellent substrate for bacterial adhesion and biofilm formation.[5],[15] […] We imaged three to four randomly selected areas of each Tegaderm sample at two magnifications each. Each image is scored for the presence/absence of bacterial cells, either rod-shaped P. aeruginosa, ∼1 μm in diameter, or spherical MRSA cocci, ∼0.9 μm in diameter. Images are also scored for biofilm-like structures defined by having multiple bacteria embedded in an obvious three-dimensional matrix. These distinctions are shown by representative images of the fixed Tegaderm dressings in Figure 9A,B. In vehicle control samples, we observed that P. aeruginosa frequently forms an open, three-dimensional matrix in which many cells are entangled in μm-long fibers. We observed that MRSA also forms a matrix in which cells are close-packed in strands that comprise a large-scale mesh. Every SEM image (68/68) from vehicle control samples of the two bacteria contained obvious visible bacteria, and most of these images contained ≥50 individual cells. In samples from peptide-treated animals, 57 of 68 (84%) of images had no visible bacteria. […] We performed a statistical analysis of observed bacteria and biofilms using the binomial equation. P-values for all comparisons of treated vs vehicle were less than 0.001. […]

[3] = Post-surgery mouse monitoring (weight, wound condition); conditions: monitored every day for 14 days, four mice per group, P. aeruginosa and MRSA infected mice, versus vehicle control
Description: In this model, a deep surgical punch wound, created on the dorsal surface of healthy adult CD1 mice is stabilized with a silicone ring to prevent healing by contraction, and then, covered with a Tegaderm dressing. The wound bed, with a volume of ∼20 μL, is immediately infected with 1 × 10^5 cfu of luciferase-producing P. aeruginosa or MRSA.
Female CD1 mice at 8–12 weeks of age were anesthetized via intraperitoneal injection of ketamine and xylazine at doses of 90 and 10 mg/kg, respectively. Their dorsal surface was depilated using an electric razor and scrubbed with a chlorhexidine solution. A full-thickness biopsy wound was generated using a 5 mm biopsy punch (Integra). To function as a splint for the wound, a 0.5 mm thick silicon (Invitrogen) ring with an outer diameter of 10 mm and a hole with a 5 mm diameter was placed over the wound and held to the skin with a surgical adhesive. The entire silicon ring was then covered with Tegaderm (3 M), and further adhered using 4-0 braided silk interrupted sutures (Ethicon). Mice were given 0.05 mg/kg buprenorphine immediately following surgery as well as daily for the next 2 days to alleviate pain from the procedure. […] Weight, activity, posture, coat condition, and wound condition were monitored each day throughout the duration of the experiment to ensure the well-being of each mouse. […]

Compound: CC(C)C[C@@H](NC(=O)[C@@H](CCC(N)=O)NC(=O)[C@@H](CCCNC(=N)N)NC(=O)[C@@H](CCCNC(=N)N)NC(=O)[C@@H](C)NC(=O)[C@@H](Cc1c[nH]c2ccccc12)NC(=O)[C@@H](CCCNC(=N)N)NC(=O)[C@H](N)CCCNC(=N)N)C(=O)N[C@H](C)C(=O)N[C@H](Cc1ccccc1)C(=O)N[C@H](C)C(=O)N[C@H](Cc1ccccc1)C(=O)N[C@H](CCCNC(=N)N)C(=O)N[C@H](CCCNC(=N)N)C(N)=O [D-CONGA-Q7] (H-[dR][dR][dW][dA][dR][dR][dQ][dL][dA][dF][dA][dF][dR][dR]-NH2; N-terminus assumed)
- Hemolysis at 100 μM (fractional hemolysis) (human RBCs): 0.07
- Fraction of clinical isolates sterilized at 2 μM ([1]; 2 μM): half
- Fraction of clinical isolates sterilized at 5 μM ([1]; 5 μM): 12/14
- K. Pneumoniae Isolate MIC, 1000527 [2]: 6.8 µM
- K. Pneumoniae Isolate MIC, 1002565 [2]: 5.1 µM
- K. Pneumoniae Isolate MIC, 1100770 [2]: 5.1 µM
- K. Pneumoniae Isolate MIC, 1100975 [2]: 3.4 µM
- K. Pneumoniae Isolate MIC, ATCC 43816 [2]: 6.8 µM
- K. Pneumoniae Isolate MIC, ATCC 700721 [2]: 6.8 µM
- K. Pneumoniae Isolate MIC, K6 [2]: 3.4 µM
- K. Pneumoniae Isolate MIC, K 6.1 [2]: 3.4 µM
- K. Pneumoniae Isolate MIC, K 6.2 [2]: 5.1 µM
- K. Pneumoniae Isolate MIC, KP 80 [2]: 3.4 µM
- K. Pneumoniae Isolate MIC, KP NIH 1 [2]: 6.8 µM
- K. Pneumoniae Isolate MIC, KP NIH 10 [2]: > 25 µM
- K. Pneumoniae Isolate MIC, KP NIH 24 [2]: 6.8 µM
- K. Pneumoniae Isolate MIC, KP NIH 27 [2]: 3.4 µM
- K. Pneumoniae Isolate MIC, KP NIH 29 [2]: 2.5 µM
- K. Pneumoniae Isolate MIC, KP NIH 30 [2]: 3.4 µM
- K. Pneumoniae Isolate MIC, KP NIH 31 [2]: 3.4 µM
- K. Pneumoniae Isolate MIC, KP NIH 32 [2]: 6.8 µM
- K. Pneumoniae Isolate MIC, KP NIH 33 [2]: 1.3 µM
- MRSA: Bacteria Present (SEM images of Tegaderm) (MRSA wound biofilms; images with bacteria / all random images): 3/35
- MRSA: Biofilm present (SEM images of Tegaderm) (MRSA wound biofilms; images with biofilm / all random images): 0/35
- Weight loss of mice [3]: did not demonstrate any differential weight loss
- Wound condition score [3]: no significant difference
